Where “and” joins values, the source holds several entries; their conditions need not be identical. Equal values may be shown once. ± gives the expanded uncertainty stated by the source.
Assay: molar heat capacity at constant pressure
Conditions: 101.33 kPa, Crystal, Small (less than 1 g) adiabatic calorimetry

O.O.O.O.O.O=S(=O)([O-])[O-].[Cu+2] [copper(II) sulfate pentahydrate]
molar heat capacity at constant pressure (233.45 K): 239.84 ± 0.9 J/K/mol | molar heat capacity at constant pressure (234.05 K): 245.57 ± 1.2 J/K/mol | molar heat capacity at constant pressure (234.17 K): 240.04 ± 0.9 J/K/mol | molar heat capacity at constant pressure (234.4 K): 246.29 ± 1.2 J/K/mol | molar heat capacity at constant pressure (234.6 K): 245.97 ± 1.2 J/K/mol | molar heat capacity at constant pressure (234.74 K): 245.84 ± 1.2 J/K/mol | molar heat capacity at constant pressure (235.43 K): 246.76 ± 1.2 J/K/mol | molar heat capacity at constant pressure (235.54 K): 247.78 ± 1.2 J/K/mol | molar heat capacity at constant pressure (235.9 K): 247.43 ± 1.2 J/K/mol | molar heat capacity at constant pressure (236.03 K): 249.81 ± 1.2 J/K/mol | molar heat capacity at constant pressure (236.12 K): 248.09 ± 1.2 J/K/mol | molar heat capacity at constant pressure (236.33 K): 241.79 ± 0.9 J/K/mol | molar heat capacity at constant pressure (236.34 K): 242 ± 0.9 J/K/mol | molar heat capacity at constant pressure (236.67 K): 248.93 ± 1.2 J/K/mol | molar heat capacity at constant pressure (236.8 K): 248.39 ± 1.2 J/K/mol | molar heat capacity at constant pressure (237.18 K): 249.45 ± 1.2 J/K/mol | molar heat capacity at constant pressure (237.49 K): 248.39 ± 1.2 J/K/mol | molar heat capacity at constant pressure (237.8 K): 249.96 ± 1.2 J/K/mol | molar heat capacity at constant pressure (238.17 K): 249.66 ± 1.2 J/K/mol | molar heat capacity at constant pressure (238.48 K): 250.93 ± 1.2 J/K/mol | molar heat capacity at constant pressure (238.49 K): 242.57 ± 0.91 J/K/mol | molar heat capacity at constant pressure (238.86 K): 250.68 ± 1.2 J/K/mol | molar heat capacity at constant pressure (238.93 K): 250.66 ± 1.2 J/K/mol | molar heat capacity at constant pressure (239.22 K): 244.58 ± 0.91 J/K/mol | molar heat capacity at constant pressure (239.28 K): 253.63 ± 1.2 J/K/mol | molar heat capacity at constant pressure (239.54 K): 251.41 ± 1.2 J/K/mol | molar heat capacity at constant pressure (239.78 K): 251.78 ± 1.2 J/K/mol | molar heat capacity at constant pressure (240 K): 244.6 ± 0.9 J/K/mol | molar heat capacity at constant pressure (240.05 K): 252.46 ± 1.2 J/K/mol | molar heat capacity at constant pressure (240.22 K): 252.08 ± 1.2 J/K/mol | molar heat capacity at constant pressure (240.64 K): 245.25 ± 0.91 J/K/mol | molar heat capacity at constant pressure (240.9 K): 252.78 ± 1.2 J/K/mol | molar heat capacity at constant pressure (241.06 K): 253.96 ± 1.2 J/K/mol | molar heat capacity at constant pressure (241.18 K): 254.16 ± 1.2 J/K/mol | molar heat capacity at constant pressure (241.62 K): 254.68 ± 1.2 J/K/mol | molar heat capacity at constant pressure (242.1 K): 246.15 ± 0.92 J/K/mol | molar heat capacity at constant pressure (242.31 K): 255.3 ± 1.2 J/K/mol and 255.28 ± 1.2 J/K/mol | molar heat capacity at constant pressure (242.34 K): 255.3 ± 1.2 J/K/mol | molar heat capacity at constant pressure (242.5 K): 257.5 ± 1.2 J/K/mol | molar heat capacity at constant pressure (242.81 K): 246.88 ± 0.92 J/K/mol | molar heat capacity at constant pressure (243 K): 255.25 ± 1.2 J/K/mol | molar heat capacity at constant pressure (243.44 K): 256.35 ± 1.2 J/K/mol | molar heat capacity at constant pressure (243.63 K): 256.1 ± 1.2 J/K/mol | molar heat capacity at constant pressure (243.67 K): 255.75 ± 1.2 J/K/mol | molar heat capacity at constant pressure (244.35 K): 256.2 ± 1.2 J/K/mol | molar heat capacity at constant pressure (244.56 K): 257.83 ± 1.2 J/K/mol | molar heat capacity at constant pressure (244.9 K): 258.25 ± 1.2 J/K/mol | molar heat capacity at constant pressure (244.96 K): 248.55 ± 0.93 J/K/mol | molar heat capacity at constant pressure (244.99 K): 248.48 ± 0.92 J/K/mol | molar heat capacity at constant pressure (245.02 K): 258.05 ± 1.2 J/K/mol | molar heat capacity at constant pressure (245.68 K): 259.42 ± 1.2 J/K/mol | molar heat capacity at constant pressure (245.7 K): 261.47 ± 1.2 J/K/mol and 258.65 ± 1.2 J/K/mol | molar heat capacity at constant pressure (246.21 K): 260.25 ± 1.2 J/K/mol | molar heat capacity at constant pressure (246.37 K): 259.35 ± 1.2 J/K/mol | molar heat capacity at constant pressure (246.81 K): 261 ± 1.2 J/K/mol | molar heat capacity at constant pressure (247.04 K): 259.87 ± 1.2 J/K/mol | molar heat capacity at constant pressure (247.17 K): 250.06 ± 0.92 J/K/mol | molar heat capacity at constant pressure (247.49 K): 261.87 ± 1.2 J/K/mol | molar heat capacity at constant pressure (247.71 K): 260.55 ± 1.2 J/K/mol | molar heat capacity at constant pressure (247.81 K): 250.77 ± 0.93 J/K/mol | molar heat capacity at constant pressure (247.93 K): 262.47 ± 1.2 J/K/mol | molar heat capacity at constant pressure (248.38 K): 262.79 ± 1.2 J/K/mol | molar heat capacity at constant pressure (248.76 K): 263.79 ± 1.3 J/K/mol | molar heat capacity at constant pressure (248.87 K): 265.57 ± 1.3 J/K/mol | molar heat capacity at constant pressure (249.05 K): 263.94 ± 1.3 J/K/mol and 263.89 ± 1.3 J/K/mol | molar heat capacity at constant pressure (249.35 K): 251.83 ± 0.92 J/K/mol | molar heat capacity at constant pressure (249.73 K): 264.77 ± 1.3 J/K/mol | molar heat capacity at constant pressure (250 K): 252.3 ± 0.9 J/K/mol | molar heat capacity at constant pressure (250.03 K): 265.72 ± 1.3 J/K/mol | molar heat capacity at constant pressure (250.16 K): 265.92 ± 1.3 J/K/mol | molar heat capacity at constant pressure (250.4 K): 265.12 ± 1.3 J/K/mol | molar heat capacity at constant pressure (250.65 K): 253.29 ± 0.94 J/K/mol | molar heat capacity at constant pressure (250.81 K): 264.67 ± 1.3 J/K/mol | molar heat capacity at constant pressure (251.06 K): 267.06 ± 1.3 J/K/mol | molar heat capacity at constant pressure (251.11 K): 266.37 ± 1.3 J/K/mol | molar heat capacity at constant pressure (251.28 K): 267.34 ± 1.2 J/K/mol | molar heat capacity at constant pressure (251.4 K): 267.19 ± 1.2 J/K/mol | molar heat capacity at constant pressure (251.54 K): 253.61 ± 0.95 J/K/mol | molar heat capacity at constant pressure (251.7 K): 267.09 ± 1.2 J/K/mol | molar heat capacity at constant pressure (251.73 K): 268.24 ± 1.3 J/K/mol | molar heat capacity at constant pressure (252 K): 268.41 ± 1.3 J/K/mol | molar heat capacity at constant pressure (252.02 K): 268.79 ± 1.3 J/K/mol | molar heat capacity at constant pressure (252.3 K): 268.34 ± 1.3 J/K/mol | molar heat capacity at constant pressure (252.43 K): 268.74 ± 1.3 J/K/mol | molar heat capacity at constant pressure (252.44 K): 269.16 ± 1.3 J/K/mol | molar heat capacity at constant pressure (252.6 K): 268.74 ± 1.3 J/K/mol | molar heat capacity at constant pressure (252.91 K): 269.29 ± 1.3 J/K/mol | molar heat capacity at constant pressure (253.1 K): 269.76 ± 1.3 J/K/mol | molar heat capacity at constant pressure (253.21 K): 269.44 ± 1.3 J/K/mol | molar heat capacity at constant pressure (253.49 K): 254.99 ± 0.95 J/K/mol | molar heat capacity at constant pressure (253.51 K): 272.53 ± 1.3 J/K/mol | molar heat capacity at constant pressure (253.55 K): 268.86 ± 1.3 J/K/mol | molar heat capacity at constant pressure (253.73 K): 255.6 ± 0.95 J/K/mol | molar heat capacity at constant pressure (253.77 K): 270.41 ± 1.3 J/K/mol | molar heat capacity at constant pressure (253.82 K): 269.46 ± 1.3 J/K/mol | molar heat capacity at constant pressure (254.13 K): 270.51 ± 1.3 J/K/mol | molar heat capacity at constant pressure (254.44 K): 270.78 ± 1.3 J/K/mol | molar heat capacity at constant pressure (254.48 K): 271.06 ± 1.3 J/K/mol | molar heat capacity at constant pressure (254.67 K): 267.86 ± 1.3 J/K/mol | molar heat capacity at constant pressure (254.79 K): 270.11 ± 1.3 J/K/mol | molar heat capacity at constant pressure (255.09 K): 270.86 ± 1.3 J/K/mol | molar heat capacity at constant pressure (255.11 K): 269.99 ± 1.3 J/K/mol | molar heat capacity at constant pressure (255.15 K): 266.89 ± 1.2 J/K/mol | molar heat capacity at constant pressure (255.4 K): 268.06 ± 1.3 J/K/mol | molar heat capacity at constant pressure (255.71 K): 269.24 ± 1.3 J/K/mol | molar heat capacity at constant pressure (255.78 K): 268.39 ± 1.3 J/K/mol | molar heat capacity at constant pressure (255.79 K): 265.69 ± 1.2 J/K/mol | molar heat capacity at constant pressure (255.93 K): 257.4 ± 0.95 J/K/mol | molar heat capacity at constant pressure (256.02 K): 270.78 ± 1.3 J/K/mol | molar heat capacity at constant pressure (256.31 K): 256.81 ± 0.95 J/K/mol | molar heat capacity at constant pressure (256.34 K): 267.49 ± 1.2 J/K/mol | molar heat capacity at constant pressure (256.46 K): 267.76 ± 1.2 J/K/mol | molar heat capacity at constant pressure (256.65 K): 267.31 ± 1.2 J/K/mol | molar heat capacity at constant pressure (256.92 K): 265.79 ± 1.2 J/K/mol | molar heat capacity at constant pressure (256.96 K): 267.59 ± 1.2 J/K/mol | molar heat capacity at constant pressure (257.13 K): 266.91 ± 1.2 J/K/mol | molar heat capacity at constant pressure (257.27 K): 266.51 ± 1.2 J/K/mol | molar heat capacity at constant pressure (257.59 K): 266.84 ± 1.2 J/K/mol | molar heat capacity at constant pressure (257.81 K): 266.84 ± 1.2 J/K/mol | molar heat capacity at constant pressure (257.9 K): 267.19 ± 1.2 J/K/mol | molar heat capacity at constant pressure (258.04 K): 266.69 ± 1.2 J/K/mol | molar heat capacity at constant pressure (258.2 K): 258.77 ± 0.95 J/K/mol | molar heat capacity at constant pressure (258.23 K): 266.29 ± 1.2 J/K/mol | molar heat capacity at constant pressure (258.28 K): 269.36 ± 1.3 J/K/mol | molar heat capacity at constant pressure (258.49 K): 266.59 ± 1.2 J/K/mol | molar heat capacity at constant pressure (258.54 K): 266.91 ± 1.2 J/K/mol | molar heat capacity at constant pressure (258.86 K): 266.27 ± 1.2 J/K/mol | molar heat capacity at constant pressure (259.1 K): 259.75 ± 0.96 J/K/mol | molar heat capacity at constant pressure (259.16 K): 267.91 ± 1.3 J/K/mol and 267.81 ± 1.2 J/K/mol | molar heat capacity at constant pressure (259.17 K): 266.56 ± 1.2 J/K/mol | molar heat capacity at constant pressure (259.54 K): 267.76 ± 1.2 J/K/mol | molar heat capacity at constant pressure (259.84 K): 267.96 ± 1.3 J/K/mol | molar heat capacity at constant pressure (259.85 K): 268.01 ± 1.3 J/K/mol | molar heat capacity at constant pressure (260 K): 260.1 ± 1 J/K/mol | molar heat capacity at constant pressure (260.17 K): 268.06 ± 1.3 J/K/mol | molar heat capacity at constant pressure (260.28 K): 269.14 ± 1.3 J/K/mol | molar heat capacity at constant pressure (260.42 K): 260.6 ± 0.97 J/K/mol | molar heat capacity at constant pressure (260.48 K): 269.74 ± 1.3 J/K/mol | molar heat capacity at constant pressure (260.5 K): 268.36 ± 1.3 J/K/mol | molar heat capacity at constant pressure (260.81 K): 268.66 ± 1.3 J/K/mol | molar heat capacity at constant pressure (261.13 K): 268.81 ± 1.3 J/K/mol | molar heat capacity at constant pressure (261.17 K): 270.24 ± 1.3 J/K/mol | molar heat capacity at constant pressure (261.39 K): 272.21 ± 1.3 J/K/mol | molar heat capacity at constant pressure (261.41 K): 270.41 ± 1.3 J/K/mol | molar heat capacity at constant pressure (261.45 K): 269.31 ± 1.3 J/K/mol | molar heat capacity at constant pressure (261.76 K): 270.09 ± 1.3 J/K/mol | molar heat capacity at constant pressure (261.85 K): 271.36 ± 1.3 J/K/mol | molar heat capacity at constant pressure (261.91 K): 260.82 ± 0.96 J/K/mol | molar heat capacity at constant pressure (262.08 K): 270.58 ± 1.3 J/K/mol | molar heat capacity at constant pressure (262.39 K): 270.73 ± 1.3 J/K/mol | molar heat capacity at constant pressure (262.53 K): 272.18 ± 1.3 J/K/mol and 271.23 ± 1.3 J/K/mol | molar heat capacity at constant pressure (262.65 K): 262.42 ± 0.97 J/K/mol | molar heat capacity at constant pressure (262.71 K): 270.93 ± 1.3 J/K/mol | molar heat capacity at constant pressure (263.03 K): 271.38 ± 1.3 J/K/mol | molar heat capacity at constant pressure (263.24 K): 272.33 ± 1.3 J/K/mol | molar heat capacity at constant pressure (263.34 K): 272.38 ± 1.3 J/K/mol | molar heat capacity at constant pressure (263.65 K): 274.08 ± 1.3 J/K/mol | molar heat capacity at constant pressure (263.66 K): 273.13 ± 1.3 J/K/mol
